Legend:
SUCNR1 = SUCNR1 (Homo sapiens, UniProt Q9BXA5); conditions: cited from earlier work
[1] = tested on: animal after a 10-minute stop of blood flow; conditions: cited from earlier work
[2] = four- to seven-day alcohol poisoning or acute barbiturate poisoning

Sequence of SUCNR1 (Q9BXA5 whole entry, species assumed): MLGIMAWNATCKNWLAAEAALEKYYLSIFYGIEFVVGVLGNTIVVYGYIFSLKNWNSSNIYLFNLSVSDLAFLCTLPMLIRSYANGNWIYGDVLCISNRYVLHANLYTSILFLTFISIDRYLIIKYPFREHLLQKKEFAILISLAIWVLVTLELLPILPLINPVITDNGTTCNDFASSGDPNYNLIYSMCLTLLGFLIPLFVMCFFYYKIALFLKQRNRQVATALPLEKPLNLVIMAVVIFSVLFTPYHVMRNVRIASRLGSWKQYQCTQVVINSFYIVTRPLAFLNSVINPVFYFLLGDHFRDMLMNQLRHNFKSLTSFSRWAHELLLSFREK

O=C(O)CCC(=O)O [succinate]
concentration in interstitial fluid and blood sufficient for SUCNR1 activation and HIF dimer stabilization (SUCNR1): 2.10^−4 mol | concentration needed to activate SUCNR1 or to stabilize HIF (SUCNR1): 150 ± 180 µmol

O=C(O)CCC(=O)O [succinic acid]
central nervous system recovery ([1]; oral administration): improves the central nervous system's recovery

O=C([O-])CCC(=O)[O-].[Na+].[Na+] [sodium succinate]
condition of the central nervous system ([1]; abdominal injection after the stop of blood flow): not only fails to improve, but can aggravate, the condition of the central nervous system

O=C(O)CCC(=O)O [natural conformer of succinic acid, succinic acid]
severe intoxication [2]: contributes to the prevention of severe intoxication

— patent US20200360322A1, “FORMULATIONS AND DOSAGE FORMS FOR ENHANCING PERFORMANCE OR RECOVERY FROM STRESS” (ACTIVATE BIO PHYSICS CORP., priority 2017, published 2020)
